Data: patent publication US9221809B2 (MERCK SHARP & DOHME CORP., priority 2011, dated 2015)
Structures can show the parent of a compound that is named as a salt.

target: IRAK4 (Homo sapiens (Human), UniProt Q9NWZ3); experiment: IRAK4 kinase activity, IMAP fluorescence polarization assay; format: biochemical; conditions: 100 μM ATP, 0.5 nM GST tagged IRAK4; read-out: IRAK4 IC50
Description: The kinase activity of IRAK4 is determined by its ability to catalyze the phosphorylation of a fluorescent polypeptide substrate. The extent of phosphorylation is measured using IMAP technology (Molecular Devices) where the phosphorylated fluorescent substrate binds to the large M(III)-based nanoparticles which reduces the rotational speed of the substrate and thus increases its fluorescent polarization (FP).
Assay Procedure: A 20 μl reaction mixture contains 10 mM TriHCl, pH 7.2, 0.5 nM GST tagged IRAK4 (SignalChem), 100 nM fluorescent peptide substrate (RP7030, Molecular Devices), 100 μM ATP, 1 mM DTT, 1 mM MgCl2, and 0.01% Tween 20. The reaction is initiated by the addition of ATP. After incubation for 30 minutes at 25° C., 60 μl of Progressive IMAP Reagent (Molecular Devices) is added to stop the reaction. Change in RP7030's FP is determined by a FP reader (Analyst HT, LJL BioSystems)

IRAK4, sequence (Q9NWZ3 whole entry): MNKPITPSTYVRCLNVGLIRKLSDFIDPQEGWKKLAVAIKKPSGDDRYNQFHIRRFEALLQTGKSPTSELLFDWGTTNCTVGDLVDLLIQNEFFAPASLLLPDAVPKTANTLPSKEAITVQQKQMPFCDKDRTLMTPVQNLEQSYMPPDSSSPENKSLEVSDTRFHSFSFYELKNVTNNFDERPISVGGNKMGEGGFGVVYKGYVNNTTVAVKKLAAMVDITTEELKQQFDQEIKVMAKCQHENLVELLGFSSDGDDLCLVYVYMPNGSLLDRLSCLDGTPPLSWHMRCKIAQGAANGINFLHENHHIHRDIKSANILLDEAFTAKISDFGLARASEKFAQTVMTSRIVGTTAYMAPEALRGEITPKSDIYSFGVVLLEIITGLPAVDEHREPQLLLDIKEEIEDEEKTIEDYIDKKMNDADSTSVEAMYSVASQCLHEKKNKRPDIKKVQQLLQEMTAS

SMILES	IC50
O=c1[nH]c(N2CCCC2)nc(N[C@@H]2CCCNC2)c1-c1ccc2ccccc2n1 [Example 114, (R)-6-(piperidin-3-ylamino)-2-(pyrrolidin-1-yl)-5-(quinolin-2-yl)pyrimidin-4(3H)-one.HCl]	24 nM
O=c1[nH]c(NC2CCC2)nc(N[C@@H]2C[C@H](CO)[C@@H](O)[C@H]2O)c1-c1nccs1 [Example 22, 2-(Cyclobutylamino)-6-((1R,2S,3R,4R)-2,3-dihydroxy-4-(hydroxymethyl)cyclopentylamino)-5-(thiazol-2-yl)pyrimidin-4(3H)-one.HCl]	1110 nM
CCc1nc(N[C@@H]2C[C@H](CO)[C@@H](O)[C@H]2O)c(-c2nc3ccccc3s2)c(=O)[nH]1 [Example 61, 5-(Benzo[d]thiazol-2-yl)-6-((1R,2S,3R,4R)-2,3-dihydroxy-4-(hydroxymethyl)cyclopentylamino)-2-ethylpyrimidin-4(3H)-one.HCl]	1160 nM
O=c1[nH]c(NC2CC(F)(F)C2)nc(N[C@@H]2C[C@H](CO)[C@@H](O)[C@H]2O)c1-c1nc2ccccc2s1 [Example 9, 5-(Benzo[d]thiazol-2-yl)-2-(3,3-difluorocyclobutylamino)-6-((1R,2S,3R,4R)-2,3-dihydroxy-4-(hydroxymethyl)cyclopentylamino)pyrimidin-4(3H)-one.HCl]	324 nM
CC(C)[C@H]1C[C@@H](Nc2nc[nH]c(=O)c2-c2nc3ccccc3s2)[C@H](O)[C@@H]1O [Example 43, 5-(Benzo[d]thiazol-2-yl)-6-((1R,2S,3R,4R)-2,3-dihydroxy-4-isopropylcyclopentylamino)pyrimidin-4(3H)-one.HCl]	850 nM
Nc1nc(N[C@@H]2C[C@H](CO)[C@@H](O)[C@H]2O)c(-c2nc3ccccc3s2)c(=O)[nH]1 [Example 2, 2-Amino-5-(benzo[d]thiazol-2-yl)-6-((1R,2S,3R,4R)-2,3-dihydroxy-4-(hydroxymethyl)cyclopentylamino)pyrimidin-4(3H)-one.HCl]	694 nM
COCCCNc1nc(N[C@@H]2C[C@H](CO)[C@@H](O)[C@H]2O)c(-c2nc3ccccc3s2)c(=O)[nH]1 [Example 40, 5-(Benzo[d]thiazol-2-yl)-6-(((1R,2S,3R,4R)-2,3-dihydroxy-4-(hydroxymethyl)cyclopentyl)amino)-2-((3-methoxypropyl)amino)pyrimidin-4(3H)-one HCl]	60 nM
O=c1[nH]c(N2CCOCC2)nc(NC2CCNC2)c1-c1nc2ccccc2s1 (stereo not drawn) [Example 85, 5-(Benzo[d]thiazol-2-yl)-2-morpholino-6-(pyrrolidin-3-ylamino)pyrimidin-4(3H)-one.HCl]	177 nM
C[C@H]1CC[C@@H](Nc2nc(N3CCOCC3)[nH]c(=O)c2-c2ccc3ccccc3n2)CN1 (racemic) [Example 122, 6-(methylpiperidin-3-yl)amino-2-morpholino-5-(quinolin-2-yl)pyrimidin-4(3H)-one.HCl]	541 nM
O=c1[nH]c(N2CCCC2)nc(N[C@@H]2CCCNC2)c1-c1nc2c(C3CC3)nccc2s1 [Example 118, (R)-5-(4-cyclopropylthiazolo[4,5-c]pyridin-2-yl)-6-(piperidin-3-ylamino)-2-(pyrrolidin-1-yl)pyrimidin-4(3H)-one.HCl]	14 nM
O=c1[nH]c(N2CCOCC2)nc(N[C@@H]2CCCNC2)c1-c1nc2cnccc2s1 [Example 113, (R)-2-morpholino-6-(piperidin-3-ylamino)-5-(thiazolo[4,5-c]pyridin-2-yl)pyrimidin-4(3H)-one.HCl]	12 nM

same assay, conditions: 100 μM ATP; read-out: IC50

SMILES	IC50
O=c1[nH]c(N2CCOCC2)nc(N[C@@H]2CCCNC2)c1-c1cc2ccccc2cn1 [Example 225, (R)-5-(isoquinolin-3-yl)-2-morpholino-6-(piperidin-3-ylamino)pyrimidin-4(3H)-one]	466 nM
NC1CCCCC1Nc1nc(N2CCOCC2)[nH]c(=O)c1-c1nc2ccccc2s1 (stereo not drawn) [Example 263, 6-(2-aminocyclohexylamino)-5-(benzo[d]thiazol-2-yl)-2-morpholino-pyrimidin-4(3H)-one]	230 nM
CC(=O)NC1CCN(c2nc(N[C@@H]3CCCNC3)c(-c3nc4ccccc4s3)c(=O)[nH]2)CC1 [Example 333, N-[1-[5-(1,3-benzothiazol-2-yl)-6-oxo-4-[[(3R)-piperidin-3-yl]amino]-1,6-dihydropyrimidin-2-yl]piperidin-4-yl]acetamide trifluoroacetic acid]	94 nM
CN(CCO)c1nc(N[C@@H]2CCCNC2)c(-c2nc3ccccc3s2)c(=O)[nH]1 [Example 292, (R)-5-(benzo[d]thiazol-2-yl)-2-((2-hydroxyethyl)(methyl)amino)-6-(piperidin-3-ylamino)pyrimidin-4(3H)-one]	190 nM
O=c1[nH]c(N2CC[C@@H](O)C2)nc(N[C@@H]2CCCNC2)c1-c1nc2ccccc2s1 [Example 315]	17 nM
CC1(Nc2nc(N3CCOCC3)[nH]c(=O)c2-c2nc3ccccc3s2)CCCNC1 (stereo not drawn) [Example 248, 5-(1,3-benzothiazol-2-yl)-6-[(3-methylpiperidin-3-yl)amino]-2-(morpholin-4-yl)-3,4-dihydro-pyrimidin-4-one]	150 nM
CC(O)CNc1nc(N2CCOCC2)[nH]c(=O)c1-c1nc2ccccc2s1 (stereo not drawn) [Example 265, 5-(benzo[d]thiazol-2-yl)-6-(2-hydroxypropylamino)-2-morpholino-pyrimidin-4(3H)-one]	780 nM
O=c1[nH]c(C2CCN(c3cnccn3)CC2)nc(N[C@@H]2CCCNC2)c1-c1nc2ccccc2s1 [Example 243, (R)-5-(benzo[d]thiazol-2-yl)-6-(piperidin-3-ylamino)-2-(1-(pyrazin-2-yl)piperidin-4-yl)pyrimidin-4(3H)-one]	180 nM
NC(=O)CNc1nc(N[C@@H]2CCCNC2)c(-c2nc3ccccc3s2)c(=O)[nH]1 [Example 302, (R)-2-(5-(benzo[d]thiazol-2-yl)-6-oxo-4-(piperidin-3-ylamino)-1,6-dihydropyrimidin-2-ylamino)acetamide bis(2,2,2-trifluoroacetate)]	2300 nM
CC1CCN(c2nc(N[C@@H]3CCCNC3)c(-c3nc4ccccc4s3)c(=O)[nH]2)CC1 [Example 297, 5-(1,3-benzothiazol-2-yl)-2-(4-methylpiperidin-1-yl)-6-[[(3R)-piperidin-3-yl]amino]-3,4-dihydropyrimidin-4-one]	69 nM

same assay, conditions: 100 μM ATP; read-out: IRAK4 IC50

SMILES	IC50
O=c1[nH]c(N2CCCC2c2ccncc2)nc(N[C@@H]2CCCNC2)c1-c1ccc2ccccc2n1 (stereo partly drawn) [Example 182, 6-((R)-piperidin-3-ylamino)-2-(2-(pyridin-4-yl)pyrrolidin-1-yl)-5-(quinolin-2-yl)pyrimidin-4(3H)-one]	3180 nM

same assay, conditions: unit inferred; 100 μM ATP; read-out: IRAK4 IC50

SMILES	IC50
CS(=O)(=O)C1CN(c2nc(N[C@@H]3C[C@H](CO)[C@@H](O)[C@H]3O)c(-c3nc4ccccc4s3)c(=O)[nH]2)C1 [Example 71, 5-(benzo[d]thiazol-2-yl)-6-((1R,2S,3R,4R)-2,3-dihydroxy-4-(hydroxymethyl)cyclopentylamino)-2-(3-(methylsulfonyl)azetidin-1-yl)pyrimidin-4(3H)-one]	17.9 nM
O=c1[nH]c(N2CCC(c3cncnc3)CC2)nc(N[C@@H]2C[C@H](CO)[C@@H](O)[C@H]2O)c1-c1nc2ccccc2s1 [Example 64, 5-(benzo[d]thiazol-2-yl)-6-((1R,2S,3R,4R)-2,3-dihydroxy-4-(hydroxymethyl)cyclopentylamino)-2-(4-(pyrimidin-5-yl)piperidin-1-yl)pyrimidin-4(3H)-one]	6.2 nM
